Test results published in patent publication US10532081B2, “Method of ameliorating or preventing the worsening or the progression of symptoms of BPH” (Nymox Corporation, priority 2016, dated 2020).
Marks after values point to notes of the source that are not given here.

System: Patients with BPH
Assay: Double-blind clinical study: intraprostatic injection in patients with BPH, symptoms evaluated by International Prostate Symptom Score (IPSS)
Type: in vivo, human
Text: The International Prostate Symptom Score (I-PSS) is based on the answers to seven questions concerning urinary symptoms and one question concerning quality of life. Each question concerning urinary symptoms allows the patient to choose one out of six answers indicating increasing severity of the particular symptom. The answers are assigned points from 0 to 5. The total score can therefore range from 0 to 35 (asymptomatic to very symptomatic). The questions refer to the following urinary symptoms:
Patients with BPH were given an intraprostatic injection of either a) SEQ ID NO. 66 (Ile-Asp-Gln-Gln-Val-Leu-Ser-Arg-Ile-Lys-Leu-Glu-Ile-Lys-Arg-Cys-Leu) in phosphate buffered saline pH 7.2 (“PBS”) or b) PBS alone, under double-blind conditions by a urologist in an office setting under ultrasound guidance. Patients were followed for 1 to 6 years with regular physical examinations, laboratory tests, and evaluations of symptoms. Symptomatic evaluation was measured by the International Prostate Symptom Score (IPSS) which is a quantitative scale used to gauge prostatic symptomatic improvement or worsening. The IPSS quantifies the following: 1) incomplete bladder emptying after urination; 2) frequent urination; 3) stopping and starting during urination; 4) urgent need to urinate; 5) weakness of urinary stream; 6) need to push or strain during urination; 7) need to urinate after going to sleep at night (nocturia). The difference from baseline IPSS was compared in all patients who were given an intraprostatic injection of SEQ ID NO. 66 to the difference from baseline IPSS in patients who received PBS alone. […] 66 treated patients, there was also an unexpected decrease in the incidence of worsening and progression in symptoms in patients treated with SEQ ID NO. 66.
Patients with BPH were given an intraprostatic injection of either a) SEQ ID NO. 66 in phosphate buffered saline pH 7.2 (“PBS”) or b) PBS alone, under double-blind conditions by a urologist in an office setting under ultrasound guidance. Subsequently, 326 placebo and SEQ ID NO. 66 treated subjects were administered an intraprostatic injection of SEQ ID NO. 66 (2.5 mg). Patients were followed for 1 to 6 years with physical examinations, laboratory tests, and evaluations of symptoms. Symptomatic evaluation was measured by the International Prostate Symptom Score (IPSS) which is a quantitative scale used to gauge prostatic symptomatic improvement or worsening. The IPSS quantifies the following: 1) incomplete bladder emptying after urination; 2) frequent urination; 3) stopping and starting during urination; 4) urgent need to urinate; 5) weakness of urinary stream; 6) need to push or strain during urination; 7) need to urinate after going to sleep at night (nocturia). The difference from baseline IPSS was compared in placebo patients who subsequently received SEQ ID NO. 66 vs results in patients who received PBS alone. […] 66 treated patients there was also an unexpected decrease in the incidence of worsening or lack of improvement in symptoms in patients treated with SEQ ID NO. 66.
Patients with BPH were given an intraprostatic injection of either a) SEQ ID NO. 66 in phosphate buffered saline pH 7.2 (“PBS”) or b) PBS alone, under double-blind conditions by a urologist in an office setting under ultrasound guidance. Subsequently, 326 subjects were given an intraprostatic injection of SEQ ID NO. 66 (2.5 mg). Symptomatic evaluation was measured by the International Prostate Symptom Score (IPSS) which is a quantitative scale used to gauge prostatic symptomatic improvement or worsening. The IPSS quantifies the following: 1) incomplete bladder emptying after urination; 2) frequent urination; 3) stopping and starting during urination; 4) urgent need to urinate; 5) weakness of urinary stream; 6) need to push or strain during urination; 7) need to urinate after going to sleep at night (nocturia). […]

IDQQVLSRIKLEIKRCL [SEQ ID NO: 66, NTP peptide Ile-Asp-Gln-Gln-Val-Leu-Ser-Arg-Ile-Lys-Leu-Glu-Ile-Lys-Arg-Cys-Leu, injected intraprostatically in phosphate buffered saline pH 7.2]
Percentage of worsening of IPSS (Example 1: all patients given one intraprostatic injection of SEQ ID NO. 66 in PBS, followed 1 to 6 years, p < .02 vs PBS alone): 13.1%*
Percentage of worsening of IPSS or no improvement in IPSS (Example 2: placebo patients who subsequently received intraprostatic SEQ ID NO. 66 (2.5 mg), followed 1 to 6 years, p < 0.0001 vs PBS alone): 17.3%*
Percentage of worsening of IPSS or no improvement in IPSS (Example 3: patients who received two intraprostatic injections of SEQ ID NO. 66 (second 2.5 mg), p < 0.0001 vs PBS alone): 17.6%*
Percentage of worsening of IPSS or no improvement of IPSS (Example 4: all placebo and SEQ ID NO. 66 treated patients subsequently given intraprostatic SEQ ID NO. 66 (2.5 mg), followed 1 to 6 years, p < .0001 vs PBS alone): 17.5%*
Percentage of worsening of IPSS (Example 5: placebo patients who subsequently received intraprostatic SEQ ID NO. 66 (2.5 mg), followed 1 to 6 years, p < 0.0001 vs PBS alone): 9.0%*
Percentage of worsening of IPSS (Example 6: patients who received SEQ ID NO. 66 and subsequently SEQ ID NO. 66 (2.5 mg) intraprostatic, followed 1 to 6 years, p < 0.05 vs PBS alone): 13.5%*
Percentage of worsening of IPSS (Example 7: all placebo and SEQ ID NO. 66 treated patients subsequently given intraprostatic SEQ ID NO. 66 2.5 mg, followed 1 to 6 years, p < .0001 vs PBS alone): 11.7%*
Percentage of worsening of IPSS or no improvement of IPSS (Example 8: patients given one intraprostatic injection of SEQ ID NO. 66 in PBS, followed 1 to 6 years, p < .003 vs PBS alone): 36.4%*
improvement of symptoms (difference from baseline IPSS) compared to PBS alone (SEQ ID NO. 66 patients subsequently treated with SEQ ID NO. 66 (two injections)): more improvement
improvement of symptoms (difference from baseline IPSS) compared to PBS alone (all placebo and SEQ ID NO. 66 treated patients subsequently treated with SEQ ID NO. 66 (2.5 mg)): more improvement
improvement of symptoms (difference from baseline IPSS) compared to PBS alone (one intraprostatic injection of SEQ ID NO. 66, followed 1 to 6 years): more improvement
improvement of symptoms (difference from baseline IPSS) compared to PBS alone (placebo patients subsequently treated with SEQ ID NO. 66 (2.5 mg)): more improvement
